From patent US20230226064A1, “ORAL LIQUID FORMULATIONS OF RUXOLITINIB” (Novartis AG, priority 2020, published 2023)

Assay: Solubility profile of ruxolitinib phosphate in buffer solutions at 37° C.
Assay type: physicochemical
From the text: Development of stable and palatable oral solution formulation for ruxolitinib is challenging due to pH dependent solubility (see Table 2) of the drug substance with mainly oxidation degradation products at higher temperatures/moisture content and/or in presence of oxygen.

With N#CC[C@H](C1CCCC1)n1cc(-c2ncnc3[nH]ccc23)cn1 [ruxolitinib phosphate] the solubility (aqueous buffer, Buffer solution pH 3.3) was no less than 520 µg/mL, the solubility (aqueous buffer, Buffer solution pH 4.3) was 350 µg/mL and the solubility (aqueous buffer, Buffer solution pH 5.3) was 290 µg/mL. The solubility (aqueous buffer, Buffer solution pH 7.5) was 150 µg/mL, the solubility (aqueous buffer, Buffer solution pH 8.0) was 170 µg/mL and the solubility (simulated gastric fluid, Buffer solution pH 1.0) was no less than 540 µg/mL.
